Experimental data published in US20200246403A1, “YEAST EXTRACT HAVING DIABETES PREVENTION EFFECT” (MITSUBISHI CORPORATION LIFE SCIENCES LIMITED, priority 2016, published 2020).

Tested on: rat myoblasts (L6 cells)
Assay: Measurement of glucose uptake activity in rat myoblasts (L6 cells), 2-NBDG fluorescence
Format: cell-based
Settings: insulin final concentration 100 nM (positive control), 100 μM 2-NBDG, 20 minutes
Description: Test 1: Measurement of Glucose Uptake Activity in Rat Myoblasts (L6 Cells)
L6 cells were seeded (1×10^4 cells/well) in a 96-well plate with a D-MEM medium (Dulbecco/Vogt modified Eagle's minimal essential medium) containing 10% fetal bovine serum, and pre-cultured for 48 hours (5% CO2, 37° C.) Then, the medium was replaced with a D-MEM medium containing 2% horse serum and culture was performed for 96 hours (5% CO2, 37° C.) to induce differentiation. Subsequently, the medium was replaced with a serum-free D-MEM medium, and synchronous culture was performed for 4 hours (5% CO2, 37° C.). Thereafter, the wells were washed with a KRPH buffer (Krebs Ringer Phosphate Hepes buffer), and 100 μL of a sample solution (final concentration 1 mg/mL or 5 mg/mL) dissolved in a KRPH buffer containing 100 μM 2-NBDG (2-deoxy-2-[(7-nitro-2,1,3-benzoxadiazol-4-yl)amino]-D-glucose) was added and incubated for 20 minutes (5% […], 37° C.). […] The fluorescence intensity of 2-NBDG, as the fluorescent glucose analogue incorporated into the cells, was measured at an excitation wavelength of 470 nm and a detection wavelength of 550 nm using a microplate reader. The glucose uptake activity was determined based on the following formula as the ratio of the fluorescence intensity (FS) in the case of making the sample solution react when the fluorescence intensity (FC) of the control was taken as 100. […]

insulin
Glucose uptake activity: significantly increased
